Data taken from patent US20230197192A1, “SELECTING NEOANTIGENS FOR PERSONALIZED CANCER VACCINE” (AMAZON TECHNOLOGIES, INC., priority 2020, published 2023).
Where a SMILES comes first, the peptide text is derived from it. Where no end group is shown, it is not given here.

test: Visible dissolution of peptides in DMSO / 0.9% NaCl for pool formulation; type: physicochemical; settings: not given
Procedure: Groups of peptides are selected and pooled. Up to four (4) pools with not more than (NMT) five (5) peptides in each pool were prepared. Each peptide was dissolved in 5.538% (v/v) DMSO followed by 0.9% NaCl solution, at a concentration of each peptide at 0.4158 mg/mL. Peptides which were visibly dissolved were accepted for that group's pool. Upon successful pooling of all peptides within a group, the pool was filtered through a 0.2 μm Nylon filter. Peptides were shipped in sterile tubes and labeled with Pool name, lot #, components, manufacturing data, quantity/concentration and storage conditions.

| Stability | Solubility | Compound |
| --- | --- | --- |
| Semi | – | CSCC[C@H](NC(=O)[C@H](CC(C)C)NC(=O)[C@@H](NC(=O)[C@H](CCSC)NC(=O)[C@H](CC(C)C)NC(=O)[C@@H]1CCCN1C(=O)[C@H](C)NC(=O)[C@H](Cc1ccc(O)cc1)NC(=O)[C@@H]1CCCN1C(=O)[C@H](CC(=O)O)NC(=O)CNC(=O)[C@@H](NC(=O)CNC(=O)CNC(=O)[C@H](CC(C)C)NC(=O)CNC(=O)[C@H](CO)NC(=O)[C@H](Cc1ccc(O)cc1)NC(=O)[C@@H]1CCCN1)C(C)C)C(C)C)C(=O)N[C@@H](CS)C(=O)N[C@@H](CCCNC(=N)N)C(=O)N[C@H](C(=O)N[C@@H](CS)C(=O)N[C@@H](CC(C)C)C(=O)N[C@@H](CCC(=O)O)C(=O)N[C@@H](CC(=O)O)C(=O)O)C(C)C [GGGGG.17] (H-PYSGLGGVGDPYAPLMVLMCRVCLED-OH; N-terminus and C-terminus assumed) |
| Clear | – | RSLTLEPDPIVVPGNVTLSVVG [GGGGG.33] |
| – | Cloudy | SSCMGGMNQRPILTIITLED [DDDDD.9] |

same assay, conditions: Peptide Synthesis Engineering Run Batch for Sample GGGGG; visual appearance of the peptide solution (Clear / Semi Cloudy / Cloudy)

| Visual solubility (appearance of the peptide solution) | Compound |
| --- | --- |
| Clear | CC[C@H](C)[C@H](NC(=O)[C@H](C)NC(=O)CNC(=O)[C@H](CC(C)C)NC(=O)[C@H](CC(C)C)NC(=O)[C@H](CC(=O)O)NC(=O)[C@H](CS)NC(=O)[C@H](CO)NC(=O)[C@H](CCC(=O)O)NC(=O)[C@H](C)NC(=O)[C@@H]1CCCN1C(=O)[C@@H](N)CO)C(=O)N[C@@H](CCC(N)=O)C(=O)N[C@H](C(=O)N[C@@H](CS)C(=O)N[C@H](C(=O)N[C@@H](CCCNC(=N)N)C(=O)N[C@@H](CCCCN)C(=O)N[C@@H](CO)C(=O)N[C@@H](CC(C)C)C(=O)NCC(=O)O)[C@@H](C)CC)[C@@H](C)O [GGGGG.11] (H-SPAESCDLLGAIQTCIRKSLG-OH; N-terminus and C-terminus assumed) |
| Clear | CC[C@H](C)[C@H](NC(=O)[C@H](CO)NC(=O)[C@H](CC(=O)O)NC(=O)[C@H](CCC(=O)O)NC(=O)[C@H](C)NC(=O)CN)C(=O)N[C@@H](CC(=O)O)C(=O)N[C@@H](CO)C(=O)N1CCC[C@H]1C(=O)N[C@@H](CO)C(=O)N[C@@H](C)C(=O)N[C@@H](CS)C(=O)N1CCC[C@H]1C(=O)N[C@@H](CC(C)C)C(=O)N[C@@H](CO)C(=O)N[C@H](C(=O)NCC(=O)N[C@@H](CS)C(=O)N1CCC[C@H]1C(=O)N[C@@H](C)C(=O)N[C@@H](CC(C)C)C(=O)O)[C@@H](C)O [GGGGG.21] (H-GAEDSIDSPSACPLSTGCPAL-OH; N-terminus and C-terminus assumed) |
| Clear | AAIQEKKEI [GGGGG.39] |
| Clear | APGSSRLA [GGGGG.43] |
| Clear | ARPPGGSGPLRVLIPDLQL [GGGGG.3] |
| Clear | FETTTGFDPHSGTPLSDHEAL [GGGGG.7] |
| Clear | FQSLCQAPPLLKDKVLTALE [GGGGG.8] |
| Clear | GALPVASPASL [GGGGG.45] |
| Clear | HLINYQDDAELATHALPELTKLLNDEDPV [GGGGG.14] |
| Clear | IQSIYGGLPKVPAKPKEPTIPH [GGGGG.23] |
| Clear | LAPGQPFL [GGGGG.50] |
| Clear | LDRQHVQHQLLVILKELRK [GGGGG.34] |
| Clear | LIKPPAHTSAILTVLR [GGGGG.30] |
| Clear | MSYELKCAQEL [GGGGG.49] |
| Clear | MSYELKCAQELSQKQDG [GGGGG.31] |
| Clear | NSLQNQALQTLQERLHEADAT [GGGGG.20] |
| Clear | PSAPQQEGVASKEKEEV [GGGGG.4] |
| Clear | QAYNALTL [GGGGG.41] |
| Clear | RFIGPLPREGSVGSTSDYVSQS [GGGGG.22] |
| Clear | RPGEDPSLHGIVKEQL [GGGGG.10] |
| Clear | RVGDLSPKQKEALAKPEA [GGGGG.27] |
| Clear | RVLIPDLQL [GGGGG.42] |
| Clear | SAPGSSRLAA [GGGGG.46] |
| Clear | SAPGSSRLAAV [GGGGG.36] |
| Cloudy | SAVMQEEI [GGGGG.38] |
| Clear | SLCQAPPL [GGGGG.48] |
| Clear | SPRVAPGSAPPWPALRSLLH [GGGGG.1] |
| Clear | STAPAEATL [GGGGG.44] |

| Compound | Visual solubility (appearance of the peptide solution) |
| --- | --- |
| CC(C)C[C@H](NC(=O)[C@@H](NC(=O)[C@H](Cc1c[nH]c2ccccc12)NC(=O)[C@H](C)NC(=O)[C@H](C)NC(=O)[C@@H](NC(=O)[C@H](Cc1ccccc1)NC(=O)[C@H](CCCCN)NC(=O)[C@H](C)N)C(C)C)[C@@H](C)O)C(=O)N[C@@H](CCCCN)C(=O)N[C@@H](C)C(=O)N[C@@H](C)C(=O)N[C@@H](C)C(=O)O [GGGGG.51] | Clear |

same assay, conditions: Peptide synthesis engineering run batch for sample DDDDD_2020; appearance of the solution

| Solubility | Compound |
| --- | --- |
| Clear | APPTRLAPPQRPPPPS [DDDDD.22] |
| Clear | AQSRSSPTL [DDDDD.36] |
| Clear | ARPEAQSRSSPTLES [DDDDD.12] |
| Clear | ASSQAGTVTL [DDDDD.38] |
| Clear | AVVSYVVADMKEMLPRS [DDDDD.25] |
| Cloudy | DPRLVIFSGCATRLFEA [DDDDD.11] |
| Clear | DSSIPSAATL [DDDDD.42] |
| Clear | EAQSRSSPTL [DDDDD.40] |
| Clear | FEAPGFNTTTA [DDDDD.45] |
| Clear | FGALHEDANKVIKPTSSNTA [DDDDD.5] |
| Clear | GQLFPYRARIEIKNKF [DDDDD.27] |
| Clear | GQRRDRLLTVQALSGL [DDDDD.14] |
| Clear | KDKIWLRRTKPSKHQYQICLAIDDSSSM [DDDDD.17] |
| Clear | KNPQMGDPGSLQPKSAETMNNIDRLRME [DDDDD.6] |
| Clear | KVTNCFSV [DDDDD.33] |
| Clear | LLGTVDKHSVKVTNCFSVPHN [DDDDD.16] |
| Clear | LNGSEPTGAYSIKGFFADYEIPN [DDDDD.26] |
| Clear | LQMLCPQEAPQILSRLEAVR [DDDDD.7] |
| Clear | MSKPKWPLEDEISKPEVP [DDDDD.3] |
| Clear | NQPKIGGPLGTGAFEAPGFNTTTATLGF [DDDDD.4] |
| Clear | NTSALPLVSL [DDDDD.41] |
| Clear | QELSPEKLKSWGGSLLGPWLSSGLKPLK [DDDDD.18] |
| Clear | RDILELGGPEEDAASGTISKKD [DDDDD.30] |
| Clear | RRACGARTL [DDDDD.37] |
| Clear | RRWRKLYRANSHLFQAKRFN [DDDDD.24] |
| Clear | SAGENPLEEEE [DDDDD.43] |
| Clear | SQAGTVTL [DDDDD.31] |

| Compound | Solubility |
| --- | --- |
| CC(C)C[C@H](NC(=O)[C@@H](NC(=O)[C@H](Cc1c[nH]c2ccccc12)NC(=O)[C@H](C)NC(=O)[C@H](C)NC(=O)[C@@H](NC(=O)[C@H](Cc1ccccc1)NC(=O)[C@H](CCCCN)NC(=O)[C@H](C)N)C(C)C)[C@@H](C)O)C(=O)N[C@@H](CCCCN)C(=O)N[C@@H](C)C(=O)N[C@@H](C)C(=O)N[C@@H](C)C(=O)O [DDDDD.46] | Clear |

same assay, conditions: Peptide synthesis engineering run batch for sample FFFFF; appearance of the solution

| Solubility | Compound |
| --- | --- |
| Cloudy | CC(C)C[C@H](NC(=O)[C@H](CS)NC(=O)[C@H](CS)NC(=O)[C@H](CCC(=O)O)NC(=O)[C@H](Cc1c[nH]c2ccccc12)NC(=O)[C@H](Cc1ccccc1)NC(=O)[C@H](CCC(N)=O)NC(=O)[C@H](C)NC(=O)[C@@H](N)CC(C)C)C(=O)O [FFFFF.38] (H-LAQFWECCL-OH; N-terminus and C-terminus assumed) |
| Cloudy | CC(C)C[C@H](NC(=O)[C@H](CS)NC(=O)[C@H](CS)NC(=O)[C@H](CCC(=O)O)NC(=O)[C@H](Cc1c[nH]c2ccccc12)NC(=O)[C@H](Cc1ccccc1)NC(=O)[C@H](CCC(N)=O)NC(=O)[C@H](C)N)C(=O)O [FFFFF.41] (H-AQFWECCL-OH; N-terminus and C-terminus assumed) |
| Clear | EDTGQDMLALFLRTNRQAAK [FFFFF.8] |
| Cloudy | FLSPGQLLQEPRTSLLIINNT [FFFFF.20] |
| Clear | HKDAVTCVNFSSSGHLLASGSR [FFFFF.29] |
| Clear | KLESTVGSPKKPLSDLGKLS [FFFFF.22] |
| Clear | LGIGGLQDL [FFFFF.49] |
| Clear | LLLQEEEL [FFFFF.42] |
| Clear | LSPYPEHL [FFFFF.50] |
| Clear | MILASPRYVDQVTEFLQQKLK [FFFFF.18] |
| Clear | NSASMKQAL [FFFFF.47] |
| Clear | NSLTSSVL [FFFFF.45] |
| Clear | PLNPPASTAFSQEPHSGSPA [FFFFF.24] |
| Clear | PTLPQPASHFSPPPPPPPLPP [FFFFF.5] |
| Cloudy | RNLYISGFSLCFWLVLRRLVT [FFFFF.26] |
| Clear | RSTTKSPGPSRHSKSPASTSSVN [FFFFF.21] |
| Cloudy | SLLLQEEEL [FFFFF.39] |

| Compound | Solubility |
| --- | --- |
| CC(C)C[C@H](NC(=O)[C@@H](NC(=O)[C@H](Cc1c[nH]c2ccccc12)NC(=O)[C@H](C)NC(=O)[C@H](C)NC(=O)[C@@H](NC(=O)[C@H](Cc1ccccc1)NC(=O)[C@H](CCCCN)NC(=O)[C@H](C)N)C(C)C)[C@@H](C)O)C(=O)N[C@@H](CCCCN)C(=O)N[C@@H](C)C(=O)N[C@@H](C)C(=O)N[C@@H](C)C(=O)O [FFFFF.51] | Clear |
